A word on the viability: it is a read-out of living cells in per cent, often relative to untreated cells.

Molecules are shown by their SMILES. Where “and” joins values, the source holds several entries; their conditions need not be identical. Identical values can stand only once.

Series [1] can be described thus: Cytotoxicity by CCK8 analysis in HT-29 cells. It is filed as cell-based, human. The following applies: human, HT-29 cells, read-out: Cell viability (%). As for the experimental part:
(§1) Necroptosis was induced by pretreatment with TNF‐α (20 ng·mL^−1) plus z‐VAD‐fmk (20 μM) and Smac mimetic (BV6, 2 μM) for 8 h, then stained cells with hematoxylin/eosin. For PI/Hoechst staining, cells were stained with PI and Hoechst for 20 min, then photographed with a fluorescence microscope and at least 300 cells were counted. The ratio of PI positive cells (%) = (PI positive cells) / (Hoechst positive cells) × 100%. For cell viability assay, CCK8 was added to the well and incubated for 1 − 2 h and then OD450 was measured using a multi-mode microplate reader (Cytation5, BioTek).

Series [2] deals with HT-29 cells. Put plainly: Cytotoxicity by CCK8 analysis in HT-29 cells. In kind it is cell-based, human. As for the experimental part:
as §1

Series [3] relates to apoptosis and pyroptosis of IECs. Description: Apoptosis and pyroptosis markers in IECs of DSS-treated mice (TUNEL, cleaved caspase-3, Bcl-2, Bax, GSDMD-NT, caspase-1 p20). The following applies: for BAX/BCL / GSDMD / caspase-1 / caspase-3: replicates. It is filed as in vivo, mouse. Also on record: GSDMD / caspase-1 / caspase-3: scale not given here. As for the experimental part: Tissues and cells were lysed using RIPA lysis buffer (Beyotime Biotechnology) containing protease and phosphatase inhibitor, homogenated, and centrifuged. The protein concentration was determined by BCA protein assay (Beyotime Biotechnology). Equal concentrations of proteins were separated in a 10% SDS-PAGE and transferred to PVDF membrane. The membrane was blocked using 5% milk in TBST, probed with primary antibody, RIPK1 (17519-1-AP, Proteintech, 1:1000), MLKL (GTX107538-100, GeneTex, 1:1000), RIPK3 (17563-1-AP, Proteintech, 1:1000), p-MLKL (EPR9514, Abcam, 1:1000), PKA (bs-0520R, Bioss, 1:1000), p-PKA (#9621, Cell signaling, 1:1000), CREB (AF6188, Affinity, 1:1000), p-CREB (AF3189, Affinity, 1:1000), P2Y14R (bs-12028R, Bioss, 1:1000), GSDMD (ab209845, Abcam, 1:1000), Caspase1 p20 (bs-10442R, Bioss, 1:1000), Bcl-2 (bs-0032R, Bioss, 1:1000), Bax (AF0120, Affinity, 1:1000), Caspase-3 p-17 (Cell Signaling Technology, #9664, 1:1000), β-actin (bs-0061R, Bioss, 1:1000), GAPDH (BS-2188R, Bioss, 1:1000) and corresponding HRP-conjugated antibodies Goat Anti-Rabbit IgG H&L Antibody (bioss, Bs-0295G, 1:8000) or Goat Anti-Mouse IgG H&L Antibody (bioss, Bs-0296G, 1:8000). Densitometry was quantified using ImageJ software.
Immunofluorescence staining was performed using paraffin-embedded tissues as mentioned before. For immunofluorescence, the paraffin slides were deparaffinized, rehydrated, blocked and treated according to a standard protocol. The expression of intestinal barrier associated tight junction protein, P2Y14R and EpCAM was evaluated by probing the tissues with primary antibody against Claudin-1 (bioss, bs-10011R, 1:300), Occludin (bioss, DF6919, 1:300), ZO-1 (Affinity, AF5145, 1:300), EpCAM (AiFang, AF04654, 1:300), Caspase-3 p-17 (Cell Signaling Technology, #9664, 1:1000) and P2Y14R (Invitrogen, PAS-103202, 1:300) overnight at 4°C followed by 1 h incubation with the corresponding secondary antibody Goat Anti-Mouse IgG H&L (Alexa Fluor® 555) (ab150114, Abcam, 1:500) or Goat Anti-Rabbit IgG H&L (Alexa Fluor® 488) (ab150077, Abcam, 1:300). All slides were incubated with DAPI (S2110, Solarbio) for 10 min to show the location of the nucleus. Images were captured with a confocal microscope (LSM 800, Zeiss).
TUNEL staining was performed using paraffin-embedded tissues as mentioned before. The staining was performed with apoptosis kit (11684817910, Roche) to detect apoptotic cells in colon sections according to the instructions of manufacturer. After the paraffin sections conventional dewaxing to water, performed the antigen recovery with protease K working solution at 37°C for 22 min. Then incubated the sections with permeabilize working solution at room temperature for 20 min. Next, take appropriate amount of TDT enzyme, dUTP and buffer in the tunel kit according to the number of slices and tissue size and mix at 1:5:50 ratio, and used to incubate the tissues at 37°C for 1 h. Finally, the DAPI dye (S2110, Solarbio) was used to stain nucleus at room temperature for 10 min. Images were captured with NanoZoomer S60 (C13210-01, Hamamatsu).

The subject of series [4] is intestinal organoids. Put plainly: TSZ-induced necroptosis in intestinal organoids (PI staining). It is filed as cell-based, mouse. As to conditions: P2Y14Rfl/fl organoids, pre-treated with compound. As for the experimental part: Crypts were released from the murine small intestine by incubation for 30 min at 4°C in PBS containing 2 mM EDTA. Isolated crypts were counted and pelleted. […] Organoid media were changed every 3 days. […] Dead cell imaging in live organoids was performed on the fluorescence microscope (BX53, Olympus Optical), and analyzed by image j.

For `Brc1ccc(NCc2nc3ccccc3o2)cc1` [HDL-16], in series [1] (1 nm), the viability at 12 h, 1 nM stood at 108%. In addition, in series [1] (1 μm), the viability at 12 h, 1 µM is 117%. The viability at 12 h, 10 µM in series [1] (10 μm) amounted to 103%. Also, the viability at 12 h, 100 nM in series [1] (100 nm) was found to be 109%. In addition, the “Cell viability (%)” value was 114% in series [2] (1 nm); 116% in series [2] (1 μm); 95% and 93% and 119% and 111% in series [2] (10 nm); 115% and 106% and 113% in series [2] (10 μm); 110% and 99% in series [2] (100 nm). In addition, the “Cytotoxicity in HT-29 cells” value in series [2] (CCK8, 12 h, under the concentration of 10 μM) is listed as “almost no cytotoxicity”. Further, the BAX/BCL in series [3] (DSS+HDL-16-H (high dose)) is 7.829 and 4.146 and 3.473 and 3.902 and 4.249; in series [3] (DSS+HDL-16-L (low dose)), 6.676 and 3.513 and 3.416 and 6.035 and 4.817. Moreover, the GSDMD was 1.314 and 1.225 and 1.812 and 1.35 and 1.898 in series [3] (DSS+HDL-16-H (high dose)); 1.693 and 1.518 and 1.46 and 1.354 and 1.839 in series [3] (DSS+HDL-16-L (low dose)). For the same compound, the caspase-1 in series [3] (DSS+HDL-16-H (high dose)) is 2.375 and 1.892 and 1.815 and 1.586 and 3.381; in series [3] (DSS+HDL-16-L (low dose)) it was 2.037 and 2.2873 and 0.9771 and 2.5083 and 2.278. For the same compound, the caspase-3 in series [3] (DSS+HDL-16-H (high dose)) was 2.22 and 2.236 and 2.6476 and 2.354 and 2.345; in series [3] (DSS+HDL-16-L (low dose)), 2.396 and 2.3353 and 3.098 and 2.578 and 2.264. For the same compound, the “Apoptosis and pyroptosis of IECs” value in series [3] (DSS-induced inflammation, TUNEL and western blot) was “did not influence the apoptosis and pyroptosis”. Also, the “TSZ-induced necroptosis of organoids (PI staining)” value in series [4] is listed as “protected P2Y14R^fl/fl organoids from TSZ-induced necroptosis”.
